Data as given in patent US20260130395A1, “Water Dispersible Botanical Compositions” (Aquila Black Limited, priority 2021, published 2026).

Assays:
[1] = Stability of cannabinoid compounds and Vitamin E components in Beverage 1 (AB White) by LCMSMS; format: physicochemical; details: AB White stored at 21-25° C.
[2] = Stability of cannabinoid entourage and Vitamin E components of the powder concentrate by LCMSMS; format: physicochemical; details: for Stability of Plant-Derived Cannabinoid Compounds in Powder Concentrate: powder stored at 21-25° C.
Experimental: At each time period, 0.05 g of powder was dissolved in 10 ml-15 of ethanol, diluted to fall within the analytical range, and injected into the LCMSMS for analysis.

## CCCCCc1cc(O)c2c(c1)OC(C)(C)[C@@H]1CCC(C)=C[C@@H]21 [D9 THC, delta-9-tetrahydrocannabinol, reference compound]
[1]; 29 days
  Stability of Plant-Derived Cannabinoid Compounds in AB White, 21-25° C.: 11.9 µg/mL
[1]; 30 days
  Stability of Plant-Derived Cannabinoid Compounds in AB White, 21-25° C.: 11.9 µg/mL
[1]; 60 days
  Stability of Plant-Derived Cannabinoid Compounds in AB White, 21-25° C.: 11.9 µg/mL
[1]; 90 days
  Stability of Plant-Derived Cannabinoid Compounds in AB White, 21-25° C.: 12.0 µg/mL
[1]; 120 days
  Stability of Plant-Derived Cannabinoid Compounds in AB White, 21-25° C.: 11.7 µg/mL
[1]; 150 days
  Stability of Plant-Derived Cannabinoid Compounds in AB White, 21-25° C.: 11.7 µg/mL
[1]; 180 days
  Stability of Plant-Derived Cannabinoid Compounds in AB White, 21-25° C.: 11.9 µg/mL
[1]; 210 days
  Stability of Plant-Derived Cannabinoid Compounds in AB White, 21-25° C.: 11.4 µg/mL
[1]; 240 days
  Stability of Plant-Derived Cannabinoid Compounds in AB White, 21-25° C.: 11.7 µg/mL
[1]; 270 days
  Stability of Plant-Derived Cannabinoid Compounds in AB White, 21-25° C.: 11.9 µg/mL
[1]; 300 days
  Stability of Plant-Derived Cannabinoid Compounds in AB White, 21-25° C.: 12.0 µg/mL
[1]; 330 days
  Stability of Plant-Derived Cannabinoid Compounds in AB White, 21-25° C.: 11.4 µg/mL
[1]; 360 days
  Stability of Plant-Derived Cannabinoid Compounds in AB White, 21-25° C.: 11.7 µg/mL
[1]; 390 days
  Stability of Plant-Derived Cannabinoid Compounds in AB White, 21-25° C.: 11.4 µg/mL
[1]; 420 days
  Stability of Plant-Derived Cannabinoid Compounds in AB White, 21-25° C.: 11.7 µg/mL
[1]; 450 days
  Stability of Plant-Derived Cannabinoid Compounds in AB White, 21-25° C.: 11.7 µg/mL
[1]; 480 days
  Stability of Plant-Derived Cannabinoid Compounds in AB White, 21-25° C.: 11.2 µg/mL
[1]; 510 days
  Stability of Plant-Derived Cannabinoid Compounds in AB White, 21-25° C.: 11.2 µg/mL
[1]; 540 days
  Stability of Plant-Derived Cannabinoid Compounds in AB White, 21-25° C.: 11.2 µg/mL
[1]; 570 days
  Stability of Plant-Derived Cannabinoid Compounds in AB White, 21-25° C.: 11.2 µg/mL
  stability over the entire period (in words): high degree of stability
[2]; powder concentrate stored at 21-25° C., 570 days
  degradation over the entire period (in words): no significant degradation
[2]; 0 days
  Stability of Plant-Derived Cannabinoid Compounds in Powder Concentrate: 2.55 mg/g powder
[2]; 1 days
  Stability of Plant-Derived Cannabinoid Compounds in Powder Concentrate: 2.55 mg/g powder
[2]; 2 days
  Stability of Plant-Derived Cannabinoid Compounds in Powder Concentrate: 2.46 mg/g powder
[2]; 3 days
  Stability of Plant-Derived Cannabinoid Compounds in Powder Concentrate: 2.63 mg/g powder
[2]; 5 days
  Stability of Plant-Derived Cannabinoid Compounds in Powder Concentrate: 2.66 mg/g powder
[2]; 8 days
  Stability of Plant-Derived Cannabinoid Compounds in Powder Concentrate: 2.49 mg/g powder
[2]; 9 days
  Stability of Plant-Derived Cannabinoid Compounds in Powder Concentrate: 2.49 mg/g powder
[2]; 10 days
  Stability of Plant-Derived Cannabinoid Compounds in Powder Concentrate: 2.60 mg/g powder
[2]; 11 days
  Stability of Plant-Derived Cannabinoid Compounds in Powder Concentrate: 2.58 mg/g powder
[2]; 12 days
  Stability of Plant-Derived Cannabinoid Compounds in Powder Concentrate: 2.65 mg/g powder
[2]; 15 days
  Stability of Plant-Derived Cannabinoid Compounds in Powder Concentrate: 2.49 mg/g powder
[2]; 16 days
  Stability of Plant-Derived Cannabinoid Compounds in Powder Concentrate: 2.54 mg/g powder
[2]; 17 days
  Stability of Plant-Derived Cannabinoid Compounds in Powder Concentrate: 2.54 mg/g powder
[2]; 18 days
  Stability of Plant-Derived Cannabinoid Compounds in Powder Concentrate: 2.55 mg/g powder
[2]; 19 days
  Stability of Plant-Derived Cannabinoid Compounds in Powder Concentrate: 2.51 mg/g powder
[2]; 22 days
  Stability of Plant-Derived Cannabinoid Compounds in Powder Concentrate: 2.46 mg/g powder
[2]; 23 days
  Stability of Plant-Derived Cannabinoid Compounds in Powder Concentrate: 2.65 mg/g powder
[2]; 24 days
  Stability of Plant-Derived Cannabinoid Compounds in Powder Concentrate: 2.60 mg/g powder
[2]; 25 days
  Stability of Plant-Derived Cannabinoid Compounds in Powder Concentrate: 2.55 mg/g powder
[2]; 26 days
  Stability of Plant-Derived Cannabinoid Compounds in Powder Concentrate: 2.52 mg/g powder
[2]; 29 days
  Stability of Plant-Derived Cannabinoid Compounds in Powder Concentrate: 2.47 mg/g powder
[2]; 30 days
  Stability of Plant-Derived Cannabinoid Compounds in Powder Concentrate: 2.66 mg/g powder
[2]; 60 days
  Stability of Plant-Derived Cannabinoid Compounds in Powder Concentrate: 2.66 mg/g powder
[2]; 90 days
  Stability of Plant-Derived Cannabinoid Compounds in Powder Concentrate: 2.49 mg/g powder
[2]; 120 days
  Stability of Plant-Derived Cannabinoid Compounds in Powder Concentrate: 2.66 mg/g powder
[2]; 150 days
  Stability of Plant-Derived Cannabinoid Compounds in Powder Concentrate: 2.61 mg/g powder
[2]; 180 days
  Stability of Plant-Derived Cannabinoid Compounds in Powder Concentrate: 2.59 mg/g powder
[2]; 210 days
  Stability of Plant-Derived Cannabinoid Compounds in Powder Concentrate: 2.54 mg/g powder
[2]; 240 days
  Stability of Plant-Derived Cannabinoid Compounds in Powder Concentrate: 2.53 mg/g powder
[2]; 270 days
  Stability of Plant-Derived Cannabinoid Compounds in Powder Concentrate: 2.47 mg/g powder
[2]; 300 days
  Stability of Plant-Derived Cannabinoid Compounds in Powder Concentrate: 2.57 mg/g powder
[2]; 330 days
  Stability of Plant-Derived Cannabinoid Compounds in Powder Concentrate: 2.49 mg/g powder
[2]; 360 days
  Stability of Plant-Derived Cannabinoid Compounds in Powder Concentrate: 2.58 mg/g powder
[2]; 390 days
  Stability of Plant-Derived Cannabinoid Compounds in Powder Concentrate: 2.48 mg/g powder
[2]; 420 days
  Stability of Plant-Derived Cannabinoid Compounds in Powder Concentrate: 2.53 mg/g powder
[2]; 450 days
  Stability of Plant-Derived Cannabinoid Compounds in Powder Concentrate: 2.61 mg/g powder
[2]; 480 days
  Stability of Plant-Derived Cannabinoid Compounds in Powder Concentrate: 2.65 mg/g powder
[2]; 510 days
  Stability of Plant-Derived Cannabinoid Compounds in Powder Concentrate: 2.64 mg/g powder
[2]; 540 days
  Stability of Plant-Derived Cannabinoid Compounds in Powder Concentrate: 2.47 mg/g powder
[2]; 570 days
  Stability of Plant-Derived Cannabinoid Compounds in Powder Concentrate: 2.64 mg/g powder
